According to patent publication US8884007B2, “Hexenone compounds and medical use thereof” (Institute of Pharmacology and Toxicology Medical Sciences …, priority 2010, dated 2014):

What was measured:
[1] = system: TG-induced cardiomyocytes apoptosis; assay: Protection against TG-induced cardiomyocytes apoptosis (MTT); assay type: cell-based, Wistar sucking mice
Protocol: The isolation and culture of cardiomyocytes were performed by referring to the differential adhesion method (Kreider, A. Messing, H. Doan, S. U. Kim, R. P. Lisak and D. E. Pleasure, Enrichment of Schwann cell cultures from neonatal rat sciatic nerve by differential adhesion, Brain Res 2 (1981), pp. 433-444). Wistar sucking mice newborn within 24 h were used, sterilized at skin of ventrum with iodine tincture and ethanol, subjected to thoracotomy using scissors at subxiphoid median line with a deviation to left, heart was taken out after slant thoracotomy and placed in PBS precooled with ice; the heart was softly blown and beaten with 0.01M PBS to remove blood cells and other tissues, then cut into pieces with 0.5 mm^3 size, washed with 0.01M PBS repeatedly for 2-3 times; the pieces were placed in conical flask, added with 4 ml of 0.125% pancretin, 1 ml of 0.1% collagenase II (final concentrations separately being 0.1% and 0.02%), shaken in 37° C. water bath for 10 min, the supernatant was discarded; then 4 ml of 0.125% pancretin and 1 ml of 0.1% collagenase II again, shaken in 37° C. water bath for digestion for 10 min, the supernatant was sucked and transferred to a centrifuge tube, and the supernatant was added with DMEM containing 10% FBS to terminate digestion; the step of shaking and digestion in water bath was repeated for 3-4 times, until the tissue pieces were completely digested; the collected cell suspension was centrifuged under 1000 rpm for 10 min, the supernatant was removed, then a culture medium was added for resuspension; the resuspended cells were inoculated in a cell culture flask, placed in CO2 incubator at 37° C. for incubation for 1.5 h, then the culture medium was sucked out, countered under microscope, then DMEM culture medium containing 10% FBS was used to adjust cell density, inoculated in an amount of 1×10^4 to a 96-well plate, placed in 5% CO2 incubator at 37° C. for 24 h, then half medium was replaced, a culture medium containing 0.1% Brdu was supplementally added; then the medium was replaced once per 48 h, and primary cardiomyocytes were obtained after 4 days of cultivation.
The isolated primary culture of cardiomyocytes was inoculated in an amount of 10^4 cells per well to a 96-well plate, and the volume of each well was 100 ul (marginal wells were filled with sterile PBS). […] The optical density (OD) value of each well was measured at wavelength of 550 nm by enzyme-linked immunoassay instrument, and each well was repeatedly measured for 5 times and the results were recorded. […]

primary cardiomyocytes = assay: Measurement of cell inhibition rate (MTT) on normal primary cardiomyocytes; assay type: cell-based, Wistar sucking mice
Protocol: The isolation and culture of cardiomyocytes were performed by referring to the differential adhesion method (Kreider, A. Messing, H. Doan, S. U. Kim, R. P. Lisak and D. E. Pleasure, Enrichment of Schwann cell cultures from neonatal rat sciatic nerve by differential adhesion, Brain Res 2 (1981), pp. 433-444). […]
The isolated primary culture of cardiomyocytes was inoculated in an amount of 10^4 cells per well to a 96-well plate, and the volume of each well was 100 ul (marginal wells were filled with sterile PBS). […] The optical density (OD) value of each well was measured at wavelength of 550 nm by enzyme-linked immunoassay instrument, and each well was repeatedly measured for 5 times and the results were recorded.

Structure (SMILES) | Survival rate of cardiomyocytes (%) ([1]; TG (0.4 uM) + compound 0.3 μM group, pretreatment 30 min before inducing apoptosis) | Survival rate of cardiomyocytes (%) ([1]; TG (0.4 uM) + compound 1 μM group, pretreatment 30 min before inducing apoptosis) | Survival rate of cardiomyocytes (%) ([1]; TG (0.4 uM) + compound 10 μM group, pretreatment 30 min before inducing apoptosis) | inhibition at 100 µM (primary cardiomyocytes; Cardiomyocyte, 100 μM group, MTT, 48 h, normal primary cardiomyocytes, read-out: Inhibitive rate of cardiomyocytes (%)) [%] | inhibition at 300 µM (primary cardiomyocytes; Cardiomyocyte, 300 μM group, MTT, 48 h, normal primary cardiomyocytes, read-out: Inhibitive rate of cardiomyocytes (%)) [%] | effect on survival rate of normal cardiomyocyte (primary cardiomyocytes; concentration within 300 μM) | Survival rate of cardiomyocytes (%) ([1]; TG intervening group (0.4 uM), TG alone)
O=C(/C=C/c1ccccc1)CC(NC(=S)N1CCOCC1)C(Cl)(Cl)Cl (stereo not shown) [Example 1, (1E)-1-phenyl-5-(1-morpholinylthiocarboxamido)-6,6,6-trichloro-1-ene-3-hexanone] | 76.3 ± 7.6 | 83.3 ± 7.1 | 92.2 ± 5.6 | 2.91 ± 1.88 | 0.76 ± 0.42 | no effect | 
C/C=C(/C)C(=O)O[C@H]1C(C)=C2[C@H]([C@@H]1OC(=O)CCCCCCC)[C@@](C)(OC(C)=O)C[C@H](OC(=O)CCC)[C@@]1(O)[C@H]2OC(=O)[C@@]1(C)O [TG, thapsigargin, reference compound] |  |  |  |  |  |  | 59 ± 1.1
